The values below are quoted from earlier work in US20190160050A1, “SMALL MOLECULE INHIBITION FOR PREVENTING OR TREATING FIBROTIC DISEASES” (THE REGENTS OF THE UNIVERSITY OF CALIFORNIA, priority 2016, published 2019).

Molecules are shown by their SMILES.

Data set [1] deals with JNK. The settings on record: read-out: IC50 as competitive inhibitor of JNK.
Data set [2] addresses Lck (Homo sapiens, UniProt P06239).
Data set [3] deals with Src (Homo sapiens, UniProt P12931).
The target in data set [4] is vascular endothelial growth factor receptor 2 (Homo sapiens, UniProt P35968).
Chain of vascular endothelial growth factor receptor 2 (P35968 20-1356, species assumed): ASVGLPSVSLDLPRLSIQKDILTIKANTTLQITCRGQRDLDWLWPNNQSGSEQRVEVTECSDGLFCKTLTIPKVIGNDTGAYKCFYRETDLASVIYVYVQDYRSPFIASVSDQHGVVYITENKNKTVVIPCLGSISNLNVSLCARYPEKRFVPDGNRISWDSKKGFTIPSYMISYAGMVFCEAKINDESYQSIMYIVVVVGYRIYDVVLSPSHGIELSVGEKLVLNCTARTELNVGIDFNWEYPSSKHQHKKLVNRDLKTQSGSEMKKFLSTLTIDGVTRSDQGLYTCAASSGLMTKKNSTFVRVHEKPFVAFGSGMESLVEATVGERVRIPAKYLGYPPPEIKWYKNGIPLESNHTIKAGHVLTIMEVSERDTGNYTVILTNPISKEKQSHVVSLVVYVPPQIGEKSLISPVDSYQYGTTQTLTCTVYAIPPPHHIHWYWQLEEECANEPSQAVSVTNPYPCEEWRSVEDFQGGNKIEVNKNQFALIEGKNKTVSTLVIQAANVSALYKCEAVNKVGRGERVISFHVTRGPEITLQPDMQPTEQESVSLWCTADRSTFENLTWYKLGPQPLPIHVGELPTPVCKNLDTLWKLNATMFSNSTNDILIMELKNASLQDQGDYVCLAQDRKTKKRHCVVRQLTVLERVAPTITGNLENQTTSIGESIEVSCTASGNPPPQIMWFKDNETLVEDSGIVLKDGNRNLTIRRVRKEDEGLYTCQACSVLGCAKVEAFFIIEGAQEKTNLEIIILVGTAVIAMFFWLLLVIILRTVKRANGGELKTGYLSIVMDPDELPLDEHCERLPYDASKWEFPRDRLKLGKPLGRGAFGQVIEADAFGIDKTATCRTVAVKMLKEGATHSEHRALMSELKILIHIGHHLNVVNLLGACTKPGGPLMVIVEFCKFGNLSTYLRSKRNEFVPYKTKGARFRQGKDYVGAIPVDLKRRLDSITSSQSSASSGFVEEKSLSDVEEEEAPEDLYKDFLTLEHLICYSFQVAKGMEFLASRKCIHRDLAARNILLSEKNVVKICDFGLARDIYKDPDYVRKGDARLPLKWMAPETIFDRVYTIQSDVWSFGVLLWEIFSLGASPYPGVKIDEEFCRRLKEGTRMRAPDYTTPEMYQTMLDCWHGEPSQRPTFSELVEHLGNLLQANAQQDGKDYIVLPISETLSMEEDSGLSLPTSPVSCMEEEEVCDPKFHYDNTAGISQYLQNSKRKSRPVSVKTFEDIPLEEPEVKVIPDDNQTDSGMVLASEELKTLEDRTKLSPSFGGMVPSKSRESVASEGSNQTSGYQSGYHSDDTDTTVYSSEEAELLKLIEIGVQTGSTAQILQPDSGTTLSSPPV
Data set [5] addresses c-fms (Homo sapiens, UniProt P07333). The settings on record: read-out: IC50 for c-fms tyrosine kinase.
Data set [6] has as its system Akt/PKB. To be noted: read-out: IC50 (Akt/PKB inhibitor).

Chain of Src (P12931 whole entry, species assumed): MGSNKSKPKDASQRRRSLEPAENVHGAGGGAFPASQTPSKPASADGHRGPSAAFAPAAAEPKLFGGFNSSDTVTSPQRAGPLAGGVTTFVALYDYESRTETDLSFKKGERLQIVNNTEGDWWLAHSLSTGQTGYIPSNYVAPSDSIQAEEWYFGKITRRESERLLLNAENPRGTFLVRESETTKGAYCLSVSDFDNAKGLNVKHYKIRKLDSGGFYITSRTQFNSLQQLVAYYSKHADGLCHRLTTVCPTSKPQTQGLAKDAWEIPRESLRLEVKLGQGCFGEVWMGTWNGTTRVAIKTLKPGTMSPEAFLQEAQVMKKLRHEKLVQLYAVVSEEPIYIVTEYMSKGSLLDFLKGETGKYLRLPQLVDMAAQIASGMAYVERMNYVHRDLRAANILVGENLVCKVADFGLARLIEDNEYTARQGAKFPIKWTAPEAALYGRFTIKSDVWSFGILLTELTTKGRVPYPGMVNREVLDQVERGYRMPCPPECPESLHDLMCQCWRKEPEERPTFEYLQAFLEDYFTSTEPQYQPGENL
Chain of Lck (P06239 whole entry, species assumed): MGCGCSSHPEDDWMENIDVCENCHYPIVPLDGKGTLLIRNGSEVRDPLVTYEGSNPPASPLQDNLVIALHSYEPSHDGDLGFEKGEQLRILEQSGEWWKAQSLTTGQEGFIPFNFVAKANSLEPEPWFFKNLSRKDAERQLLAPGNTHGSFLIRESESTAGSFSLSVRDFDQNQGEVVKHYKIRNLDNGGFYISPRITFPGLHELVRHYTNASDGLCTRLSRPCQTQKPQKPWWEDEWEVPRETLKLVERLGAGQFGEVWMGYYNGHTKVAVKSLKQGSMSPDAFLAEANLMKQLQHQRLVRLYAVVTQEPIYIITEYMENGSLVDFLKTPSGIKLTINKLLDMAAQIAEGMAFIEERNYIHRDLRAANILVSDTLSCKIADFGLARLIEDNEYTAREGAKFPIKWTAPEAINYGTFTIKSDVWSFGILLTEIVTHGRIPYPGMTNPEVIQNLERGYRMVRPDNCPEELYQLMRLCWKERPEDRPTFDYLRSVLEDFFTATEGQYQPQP
Chain of c-fms (P07333 20-972): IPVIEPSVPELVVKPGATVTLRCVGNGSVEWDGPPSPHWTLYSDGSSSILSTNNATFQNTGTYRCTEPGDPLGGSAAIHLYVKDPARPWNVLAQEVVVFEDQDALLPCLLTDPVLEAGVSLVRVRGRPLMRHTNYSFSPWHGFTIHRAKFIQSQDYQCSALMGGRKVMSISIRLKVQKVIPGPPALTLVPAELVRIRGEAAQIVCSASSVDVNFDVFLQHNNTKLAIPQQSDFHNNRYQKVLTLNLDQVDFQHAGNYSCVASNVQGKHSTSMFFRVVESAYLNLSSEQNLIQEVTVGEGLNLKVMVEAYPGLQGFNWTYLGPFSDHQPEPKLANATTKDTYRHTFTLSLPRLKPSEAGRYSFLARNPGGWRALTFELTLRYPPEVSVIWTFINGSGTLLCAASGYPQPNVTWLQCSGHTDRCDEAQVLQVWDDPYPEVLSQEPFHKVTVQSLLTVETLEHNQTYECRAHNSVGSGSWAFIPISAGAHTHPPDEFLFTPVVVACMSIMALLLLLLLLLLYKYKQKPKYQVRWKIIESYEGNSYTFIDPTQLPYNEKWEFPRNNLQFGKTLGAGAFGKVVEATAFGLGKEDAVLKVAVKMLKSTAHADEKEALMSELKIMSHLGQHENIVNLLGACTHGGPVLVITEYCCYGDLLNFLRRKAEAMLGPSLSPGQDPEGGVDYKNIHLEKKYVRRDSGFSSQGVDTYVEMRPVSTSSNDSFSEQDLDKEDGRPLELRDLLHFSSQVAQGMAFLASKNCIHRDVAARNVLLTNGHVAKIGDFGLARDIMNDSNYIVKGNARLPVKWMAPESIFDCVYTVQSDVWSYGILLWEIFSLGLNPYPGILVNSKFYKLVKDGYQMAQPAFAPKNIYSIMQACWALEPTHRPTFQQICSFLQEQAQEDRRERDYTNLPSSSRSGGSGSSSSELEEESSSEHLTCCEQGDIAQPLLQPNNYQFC

`O=c1[nH]nc(Sc2ncc([N+](=O)[O-])s2)n1-c1ccc2c(c1)OCCO2` [BI 78D3, 4-(2,3-dihydro-1,4-benzodioxin-6-yl)-2,4-dihydro-5-[(5-nitro-2-thiazolyl)thio]-3H-1,2,4-triazol-3-one]: in data set [1], the IC50 was 280 nM.
Consider `COc1cc2ncnc(Nc3ccc(Oc4ccccc4)cc3)c2cc1OC` [Src Inhibitor-1, 4-(4′-Phenoxyanilino)-6,7-dimethoxyquinazoline, 6,7-Dimethoxy-N-(4-phenoxyphenyl)-4-quinazolinamine], for which the IC50 in data set [2] is 88 nM; in data set [3], 44 nM; in data set [4] it was 320 nM; in data set [5], 30000 nM.
For `NC(=S)N/N=C/c1coc2ccccc2c1=O.[Cl][Cu][Cl]` [FPA 124], in data set [6], the IC50 is 100 nM.
